{
  "source": "PubChem BioAssay (NCI)",
  "assay_in_all_cases": "NCI anticancer screen, dose series, 48 h",
  "key": {"T-47D breast": {"test_system": "T-47D breast"}, "HCT-15 colon": {"test_system": "HCT-15 colon"}, "PC-3 prostate": {"test_system": "PC-3 prostate"}, "RPMI-8226 leukemia": {"test_system": "RPMI-8226 leukemia"}, "SW-620 colon": {"test_system": "SW-620 colon"}, "SNB-19 CNS": {"test_system": "SNB-19 CNS"}, "ACHN renal": {"test_system": "ACHN renal"}, "786-0 renal": {"test_system": "786-0 renal"}, "MDA-MB-435": {"test_system": "MDA-MB-435"}, "HCT-116 colon": {"test_system": "HCT-116 colon"}, "NCI-H522 lung": {"test_system": "NCI-H522 lung"}, "OVCAR-8 ovarian": {"test_system": "OVCAR-8 ovarian"}, "OVCAR-3 ovarian": {"test_system": "OVCAR-3 ovarian"}, "HT29 colon": {"test_system": "HT29 colon"}, "MALME-3M melanoma": {"test_system": "MALME-3M melanoma"}, "RXF 393 renal": {"test_system": "RXF 393 renal"}, "SK-MEL-28 melanoma": {"test_system": "SK-MEL-28 melanoma"}, "HOP-92 NSCLC": {"test_system": "HOP-92 NSCLC"}, "SK-MEL-5 melanoma": {"test_system": "SK-MEL-5 melanoma"}, "MOLT-4 leukemia": {"test_system": "MOLT-4 leukemia"}, "LOX IMVI melanoma": {"test_system": "LOX IMVI melanoma"}, "COLO 205 colon": {"test_system": "COLO 205 colon"}, "UO-31 renal": {"test_system": "UO-31 renal"}, "HS 578T breast": {"test_system": "HS 578T breast"}, "M14 melanoma": {"test_system": "M14 melanoma"}, "MDA-MB-468 breast": {"test_system": "MDA-MB-468 breast"}, "MCF7 breast": {"test_system": "MCF7 breast"}, "SF-539 CNS": {"test_system": "SF-539 CNS"}},
  "note": "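Each compound was tested at five concentrations against cells in 96-well plates for 48 hours. Abbreviation: GI50, concentration required for 50% inhibition of growth. The concentration for full growth arrest is given as TGI.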",
  "data": [
    {"smiles": "C=C1CC[C@@H]2[C@]3(C)COC(c4cn(-c5ccccc5)nc4-c4ccccc4)O[C@@H]3CC[C@@]2(C)[C@@H]1C/C=C1/C(=O)OC[C@H]1O", "note": "(stereo not given in full)", "values": [
      {"measurement": "GI50", "setting": "T-47D breast", "value": 1.42, "unit": "µM"},
      {"measurement": "TGI", "setting": "T-47D breast", "value": 3.47, "unit": "µM"},
      {"measurement": "GI50", "setting": "HCT-15 colon", "value": 1.72, "unit": "µM"},
      {"measurement": "TGI", "setting": "HCT-15 colon", "value": 3.45, "unit": "µM"},
      {"measurement": "GI50", "setting": "PC-3 prostate", "value": 1.95, "unit": "µM"},
      {"measurement": "TGI", "setting": "PC-3 prostate", "value": 4.7, "unit": "µM"},
      {"measurement": "GI50", "setting": "RPMI-8226 leukemia", "value": 2.02, "unit": "µM"},
      {"measurement": "TGI", "setting": "RPMI-8226 leukemia", "value": 8.62, "unit": "µM"},
      {"measurement": "GI50", "setting": "SW-620 colon", "value": 1.73, "unit": "µM"},
      {"measurement": "TGI", "setting": "SW-620 colon", "value": 3.68, "unit": "µM"},
      {"measurement": "GI50", "setting": "SNB-19 CNS", "value": 1.85, "unit": "µM"},
      {"measurement": "TGI", "setting": "SNB-19 CNS", "value": 3.78, "unit": "µM"},
      {"measurement": "GI50", "setting": "ACHN renal", "value": 1.64, "unit": "µM"},
      {"measurement": "TGI", "setting": "ACHN renal", "value": 3.05, "unit": "µM"},
      {"measurement": "GI50", "setting": "786-0 renal", "value": 2.03, "unit": "µM"},
      {"measurement": "TGI", "setting": "786-0 renal", "value": 4.47, "unit": "µM"},
      {"measurement": "GI50", "setting": "MDA-MB-435", "value": 1.86, "unit": "µM"},
      {"measurement": "TGI", "setting": "MDA-MB-435", "value": 4.19, "unit": "µM"},
      {"measurement": "GI50", "setting": "HCT-116 colon", "value": 1.61, "unit": "µM"},
      {"measurement": "TGI", "setting": "HCT-116 colon", "value": 3.55, "unit": "µM"},
      {"measurement": "GI50", "setting": "NCI-H522 lung", "value": 1.9, "unit": "µM"},
      {"measurement": "TGI", "setting": "NCI-H522 lung", "value": 3.86, "unit": "µM"},
      {"measurement": "GI50", "setting": "OVCAR-8 ovarian", "value": 1.81, "unit": "µM"},
      {"measurement": "TGI", "setting": "OVCAR-8 ovarian", "value": 5.31, "unit": "µM"},
      {"measurement": "GI50", "setting": "OVCAR-3 ovarian", "value": 1.82, "unit": "µM"},
      {"measurement": "TGI", "setting": "OVCAR-3 ovarian", "value": 3.35, "unit": "µM"},
      {"measurement": "GI50", "setting": "HT29 colon", "value": 2.37, "unit": "µM"},
      {"measurement": "TGI", "setting": "HT29 colon", "value": 6.77, "unit": "µM"},
      {"measurement": "GI50", "setting": "MALME-3M melanoma", "value": 1.73, "unit": "µM"},
      {"measurement": "TGI", "setting": "MALME-3M melanoma", "value": 3.18, "unit": "µM"},
      {"measurement": "GI50", "setting": "RXF 393 renal", "value": 1.4, "unit": "µM"},
      {"measurement": "TGI", "setting": "RXF 393 renal", "value": 2.84, "unit": "µM"},
      {"measurement": "GI50", "setting": "SK-MEL-28 melanoma", "value": 1.77, "unit": "µM"},
      {"measurement": "TGI", "setting": "SK-MEL-28 melanoma", "value": 3.38, "unit": "µM"},
      {"measurement": "GI50", "setting": "HOP-92 NSCLC", "value": 1.53, "unit": "µM"},
      {"measurement": "TGI", "setting": "HOP-92 NSCLC", "value": 2.99, "unit": "µM"},
      {"measurement": "GI50", "setting": "SK-MEL-5 melanoma", "value": 1.4, "unit": "µM"},
      {"measurement": "TGI", "setting": "SK-MEL-5 melanoma", "value": 2.7, "unit": "µM"},
      {"measurement": "GI50", "setting": "MOLT-4 leukemia", "value": 1.97, "unit": "µM"},
      {"measurement": "TGI", "setting": "MOLT-4 leukemia", "value": "> 100", "unit": "µM"},
      {"measurement": "GI50", "setting": "LOX IMVI melanoma", "value": 1.54, "unit": "µM"},
      {"measurement": "TGI", "setting": "LOX IMVI melanoma", "value": 3, "unit": "µM"},
      {"measurement": "GI50", "setting": "COLO 205 colon", "value": 2.01, "unit": "µM"},
      {"measurement": "TGI", "setting": "COLO 205 colon", "value": 3.57, "unit": "µM"},
      {"measurement": "GI50", "setting": "UO-31 renal", "value": 1.35, "unit": "µM"},
      {"measurement": "TGI", "setting": "UO-31 renal", "value": 2.69, "unit": "µM"},
      {"measurement": "GI50", "setting": "HS 578T breast", "value": 2.31, "unit": "µM"},
      {"measurement": "TGI", "setting": "HS 578T breast", "value": 6.54, "unit": "µM"},
      {"measurement": "GI50", "setting": "M14 melanoma", "value": 1.81, "unit": "µM"},
      {"measurement": "TGI", "setting": "M14 melanoma", "value": 3.62, "unit": "µM"},
      {"measurement": "GI50", "setting": "MDA-MB-468 breast", "value": 1.69, "unit": "µM"},
      {"measurement": "TGI", "setting": "MDA-MB-468 breast", "value": 3.34, "unit": "µM"},
      {"measurement": "GI50", "setting": "MCF7 breast", "value": 2, "unit": "µM"},
      {"measurement": "TGI", "setting": "MCF7 breast", "value": 9.09, "unit": "µM"},
      {"measurement": "GI50", "setting": "SF-539 CNS", "value": 1.84, "unit": "µM"}
    ]}
  ]
}
